Measurements: publication PMC5218480 (PLoS ONE, 2017)

Test system: MV-4-11 cells
Test: Gene expression microarray analysis (Affymetrix PrimeView) and GSEA
Type: cell-based, human
Set-up: RFU PODN (11730768_x_at) / Fold change /veh PODN (11730768_x_at) / RFU LINC00158 (11744669_a_at) / Fold change /veh LINC00158 (11744669_a_at) / RFU DUSP10 (11751237_a_at) / Fold change /veh DUSP10 (11751237_a_at) / RFU ID3 (11757404_x_at) / Fold change /veh ID3 (11757404_x_at) / RFU PLEKHG5 (11737974_s_at) / Fold change /veh PLEKHG5 (11737974_s_at) / RFU LRRC4B (11730491_at) / Fold change /veh LRRC4B (11730491_at) / RFU GIMAP4 (11747438_a_at) / Fold change /veh GIMAP4 (11747438_a_at) / RFU KRT8 (11758183_x_at) / Fold change /veh KRT8 (11758183_x_at) / RFU CNN1 (11734310_a_at) / Fold change /veh CNN1 (11734310_a_at) / RFU VPS37D (11726825_at) / Fold change /veh VPS37D (11726825_at) / RFU C10orf10 (11716522_x_at) / Fold change /veh C10orf10 (11716522_x_at) / RFU KIR2DL2 /// KIR2DL4 /// KIR2DL5A /// KIR2DL5B /// KIR2DS1 /// KIR2DS2 /// KIR2DS3 /// KIR2DS4 /// KIR3DL3 /// KIR3DL3 /// KIR3DS1 (11738374_at) / Fold change /veh KIR2DL2 /// KIR2DL4 /// KIR2DL5A /// KIR2DL5B /// KIR2DS1 /// KIR2DS2 /// KIR2DS3 /// KIR2DS4 /// KIR3DL3 /// KIR3DL3 /// KIR3DS1 (11738374_at) / RFU C1QL1 (11718748_at) / Fold change /veh C1QL1 (11718748_at) / RFU TMPRSS4 (11747572_a_at) / Fold change /veh TMPRSS4 (11747572_a_at) / RFU HAMP (11756126_x_at) / Fold change /veh HAMP (11756126_x_at) / RFU RNFT2 (11725882_a_at) / Fold change /veh RNFT2 (11725882_a_at) / RFU NR4A2 (11747474_a_at) / Fold change /veh NR4A2 (11747474_a_at) / RFU ABCC12 (11746883_a_at) / Fold change /veh ABCC12 (11746883_a_at) / RFU TMEM136 (11760407_x_at) / Fold change /veh TMEM136 (11760407_x_at) / RFU CLDN22 /// WWC2 (11732394_at) / Fold change /veh CLDN22 /// WWC2 (11732394_at) / RFU HLA-DPB1 (11760878_x_at) / Fold change /veh HLA-DPB1 (11760878_x_at) / RFU SPINT1 (11716480_a_at) / Fold change /veh SPINT1 (11716480_a_at) / RFU GAP43 (11754022_s_at) / Fold change /veh GAP43 (11754022_s_at) / RFU A4GNT (11735810_at) / Fold change /veh A4GNT (11735810_at) / RFU PRB3 (11715151_x_at) / Fold change /veh PRB3 (11715151_x_at) / RFU TUBB4B (11761932_at) / Fold change /veh TUBB4B (11761932_at) / RFU CAPN14 (11732068_a_at) / Fold change /veh CAPN14 (11732068_a_at) / RFU TMCC2 (11721928_a_at) / Fold change /veh TMCC2 (11721928_a_at) / RFU IRGQ (11745062_a_at) / Fold change /veh IRGQ (11745062_a_at) / RFU FAM174B (11720279_a_at) / Fold change /veh FAM174B (11720279_a_at) / RFU TMPRSS4 (11748680_a_at) / Fold change /veh TMPRSS4 (11748680_a_at) / RFU FAM212B (11763350_a_at) / Fold change /veh FAM212B (11763350_a_at) / RFU PLEKHG5 (11743358_a_at) / Fold change /veh PLEKHG5 (11743358_a_at) / RFU ZSCAN30 (11745921_a_at) / Fold change /veh ZSCAN30 (11745921_a_at) / RFU CMKLR1 (11741424_a_at) / Fold change /veh CMKLR1 (11741424_a_at) / RFU LOC101060620 /// MAPK8IP1 (11723275_at) / Fold change /veh LOC101060620 /// MAPK8IP1 (11723275_at) / RFU SPTSSB (11747773_x_at) / Fold change /veh SPTSSB (11747773_x_at) / RFU PRSS12 (11739890_at) / Fold change /veh PRSS12 (11739890_at) / RFU BIN1 (11741810_x_at) / Fold change /veh BIN1 (11741810_x_at) / RFU WNT11 (11732464_a_at) / Fold change /veh WNT11 (11732464_a_at) / RFU C10orf10 (11716521_a_at) / Fold change /veh C10orf10 (11716521_a_at) / RFU C5orf56 (11738089_at) / Fold change /veh C5orf56 (11738089_at) / RFU CYB561 (11721691_x_at) / Fold change /veh CYB561 (11721691_x_at) / RFU ANKRD19P (11752326_a_at) / Fold change /veh ANKRD19P (11752326_a_at) / RFU OR2T12 /// OR2T33 /// OR2T8 (11738714_s_at) / Fold change /veh OR2T12 /// OR2T33 /// OR2T8 (11738714_s_at) / RFU VCAN (11748164_a_at) / Fold change /veh VCAN (11748164_a_at) / RFU JSRP1 (11732532_at) / Fold change /veh JSRP1 (11732532_at) / RFU KRTAP10-11 (11738290_x_at) / Fold change /veh KRTAP10-11 (11738290_x_at) / RFU MYO3A (11730013_a_at) / Fold change /veh MYO3A (11730013_a_at) / RFU EBF3 (11725865_a_at) / Fold change /veh EBF3 (11725865_a_at) / RFU CAMK2N1 (11719241_x_at) / Fold change /veh CAMK2N1 (11719241_x_at) / RFU C5orf56 (11738088_a_at) / Fold change /veh C5orf56 (11738088_a_at) / RFU OLFML3 (11715873_a_at) / Fold change /veh OLFML3 (11715873_a_at) / RFU LOC100653217 /// NTM (11731650_a_at) / Fold change /veh LOC100653217 /// NTM (11731650_a_at) / RFU MAPK11 (11762145_a_at) / Fold change /veh MAPK11 (11762145_a_at) / RFU FIZ1 (11724087_x_at) / Fold change /veh FIZ1 (11724087_x_at) / RFU OASL (11726364_x_at) / Fold change /veh OASL (11726364_x_at) / RFU SOX15 (11748057_x_at) / Fold change /veh SOX15 (11748057_x_at) / RFU CD79A (11719716_a_at) / Fold change /veh CD79A (11719716_a_at) / RFU HIST1H1D (11736915_at) / Fold change /veh HIST1H1D (11736915_at) / RFU CASKIN2 (11723855_a_at) / Fold change /veh CASKIN2 (11723855_a_at) / RFU LOC730098 (11760151_x_at) / Fold change /veh LOC730098 (11760151_x_at) / RFU OR4N2 (11742367_at) / Fold change /veh OR4N2 (11742367_at) / RFU PRRT2 (11749266_a_at) / Fold change /veh PRRT2 (11749266_a_at) / RFU SNX32 (11753110_a_at) / Fold change /veh SNX32 (11753110_a_at) / RFU CDHR5 (11726645_a_at) / Fold change /veh CDHR5 (11726645_a_at) / RFU RCAN1 (11760418_a_at) / Fold change /veh RCAN1 (11760418_a_at) / RFU FAM167A (11723789_a_at) / Fold change /veh FAM167A (11723789_a_at) / RFU FAM26E (11764081_at) / Fold change /veh FAM26E (11764081_at) / RFU ISYNA1 (11749810_s_at) / Fold change /veh ISYNA1 (11749810_s_at) / RFU ACY1 (11761880_at) / Fold change /veh ACY1 (11761880_at) / RFU 11764098_at / Fold change /veh 11764098_at / RFU SAMD14 (11745864_x_at) / Fold change /veh SAMD14 (11745864_x_at) / RFU NPB (11741838_a_at) / Fold change /veh NPB (11741838_a_at) / RFU TMPRSS6 (11731388_a_at) / Fold change /veh TMPRSS6 (11731388_a_at) / RFU KRTAP10-2 (11738614_at) / Fold change /veh KRTAP10-2 (11738614_at) / RFU ARHGAP8 /// PRR5-ARHGAP8 (11727945_x_at) / Fold change /veh ARHGAP8 /// PRR5-ARHGAP8 (11727945_x_at) / RFU KRTAP5-7 /// NADSYN1 (11734609_at) / Fold change /veh KRTAP5-7 /// NADSYN1 (11734609_at) / RFU RASL12 (11751679_a_at) / Fold change /veh RASL12 (11751679_a_at) / RFU CDKN2B (11736163_a_at) / Fold change /veh CDKN2B (11736163_a_at) / RFU PRF1 (11729649_at) / Fold change /veh PRF1 (11729649_at) / RFU, ZNF638 /// ZNF638-IT1 / Fold change vs veh, ZNF638 /// ZNF638-IT1 / RFU, PANK3 / Fold change vs veh, PANK3 / RFU, SH3YL1 / Fold change vs veh, SH3YL1 / RFU, ZEB2 / Fold change vs veh, ZEB2 / RFU, NRIP1 / Fold change vs veh, NRIP1 / RFU, PTTG1IP / Fold change vs veh, PTTG1IP / RFU, CAPN2 / Fold change vs veh, CAPN2 / RFU, MED14 / Fold change vs veh, MED14 / RFU, SNORA58 / Fold change vs veh, SNORA58 / RFU, C1orf63 / Fold change vs veh, C1orf63 / RFU, LRRFIP1 / Fold change vs veh, LRRFIP1 / RFU, NDUFAF7 / Fold change vs veh, NDUFAF7 / RFU, SLC12A2 / Fold change vs veh, SLC12A2 / RFU, IBTK / Fold change vs veh, IBTK / RFU, ESF1 / Fold change vs veh, ESF1 / Fold change vs veh, TMEM50B / RFU, TAOK1 / Fold change vs veh, TAOK1 / RFU, ACBD3 / Fold change vs veh, ACBD3 / RFU, TMA16 / Fold change vs veh, TMA16 / RFU, RWDD3 / Fold change vs veh, RWDD3 / RFU, BCAT1 / Fold change vs veh, BCAT1 / RFU, EDEM3 / Fold change vs veh, EDEM3 / RFU, TMEM33 / Fold change vs veh, TMEM33 / RFU, WDR75 / Fold change vs veh, WDR75 / RFU, AHCTF1 / Fold change vs veh, AHCTF1 / RFU, TFRC / Fold change vs veh, TFRC / RFU, ZDHHC17 / Fold change vs veh, ZDHHC17 / RFU, NOM1 / Fold change vs veh, NOM1 / RFU, ARL8B / Fold change vs veh, ARL8B / RFU, ZBTB11 / Fold change vs veh, ZBTB11 / RFU, TAMM41 / Fold change vs veh, TAMM41 / RFU, KIAA1704 /// LOC100996395 / Fold change vs veh, KIAA1704 /// LOC100996395 / RFU, ING1 / Fold change vs veh, ING1 / RFU, TRMT61B / Fold change vs veh, TRMT61B / RFU, FUBP3 / Fold change vs veh, FUBP3 / RFU, TP53 / Fold change vs veh, TP53 / RFU, TNKS2 / Fold change vs veh, TNKS2 / RFU, ZFP14 / Fold change vs veh, ZFP14 / RFU, ACTR2 / Fold change vs veh, ACTR2 / RFU, PPP3R1 / Fold change vs veh, PPP3R1 / RFU, PIK3R1 / Fold change vs veh, PIK3R1 / RFU, HNRNPA1 / Fold change vs veh, HNRNPA1 / RFU, RNF170 / Fold change vs veh, RNF170 / RFU, ZNF28 / Fold change vs veh, ZNF28 / RFU, RNGTT / Fold change vs veh, RNGTT / RFU, OGT / Fold change vs veh, OGT / RFU, BRD1 / Fold change vs veh, BRD1 / RFU, MARS / Fold change vs veh, MARS / RFU, ZNF655 / Fold change vs veh, ZNF655 / RFU, FAHD1 / Fold change vs veh, FAHD1 / RFU, BDP1 / Fold change vs veh, BDP1 / RFU, LRRCC1 / Fold change vs veh, LRRCC1 / RFU, ARID1A / Fold change vs veh, ARID1A / RFU, ZNF146 / Fold change vs veh, ZNF146 / RFU, ZNF330 / Fold change vs veh, ZNF330 / RFU, GPN3 / Fold change vs veh, GPN3 / RFU, C9orf123 / Fold change vs veh, C9orf123 / RFU, N4BP2L2 / Fold change vs veh, N4BP2L2 / RFU, ARFIP1 / Fold change vs veh, ARFIP1 / RFU, FAM179B / Fold change vs veh, FAM179B / RFU, BCL10 / Fold change vs veh, BCL10 / RFU, UHRF1BP1L / Fold change vs veh, UHRF1BP1L / RFU, BET1 / Fold change vs veh, BET1 / RFU, CNOT2 / Fold change vs veh, CNOT2 / RFU, ZNF268 / Fold change vs veh, ZNF268 / Fold change vs veh, ZNF507 / RFU, DGCR2 / Fold change vs veh, DGCR2 / RFU, WDSUB1 / Fold change vs veh, WDSUB1 / Fold change vs veh, HSP90B1 /// MIR3652 / RFU, ADSS / Fold change vs veh, ADSS / RFU, GK / Fold change vs veh, GK / RFU, ZNF148 / Fold change vs veh, ZNF148 / RFU, TAF9 / Fold change vs veh, TAF9 / RFU, SLC1A5 / Fold change vs veh, SLC1A5 / RFU, SLMO2 / Fold change vs veh, SLMO2 / RFU, ABCC4 / Fold change vs veh, ABCC4 / RFU, LOC101060439 /// RAP1B / Fold change vs veh, LOC101060439 /// RAP1B / RFU, RFX7 / Fold change vs veh, RFX7 / RFU, GTPBP10 / Fold change vs veh, GTPBP10 / RFU, CNEP1R1 / Fold change vs veh, CNEP1R1 / RFU, BIVM-ERCC5 /// ERCC5 / Fold change vs veh, BIVM-ERCC5 /// ERCC5 / RFU, ILF3 / Fold change vs veh, ILF3 / RFU 11762660_at / Fold change /veh 11762660_at / RFU VCAN (11757783_s_at) / Fold change /veh VCAN (11757783_s_at) / RFU DDX43 (11728927_at) / Fold change /veh DDX43 (11728927_at) / RFU KRT8 (11758188_x_at) / Fold change /veh KRT8 (11758188_x_at) / RFU NKD1 (11759106_at) / Fold change /veh NKD1 (11759106_at) / RFU SRD5A1 (11742802_a_at) / Fold change /veh SRD5A1 (11742802_a_at) / RFU TPSAB1 /// TPSB2 (11721975_s_at) / Fold change /veh TPSAB1 /// TPSB2 (11721975_s_at) / RFU GSTM3 (11746129_a_at) / Fold change /veh GSTM3 (11746129_a_at) / RFU IL23R (11737362_x_at) / Fold change /veh IL23R (11737362_x_at) / RFU TMEM51 (11727254_a_at) / Fold change /veh TMEM51 (11727254_a_at) / RFU PIWIL2 (11732686_x_at) / Fold change /veh PIWIL2 (11732686_x_at) / RFU ORM1 (11744905_x_at) / Fold change /veh ORM1 (11744905_x_at) / RFU CCDC152 (11743942_at) / Fold change /veh CCDC152 (11743942_at) / RFU ECM1 (11717891_a_at) / Fold change /veh ECM1 (11717891_a_at) / RFU IL23R (11748794_a_at) / Fold change /veh IL23R (11748794_a_at) / RFU TNFAIP8L3 (11732012_x_at) / Fold change /veh TNFAIP8L3 (11732012_x_at) / RFU MBOAT4 (11741988_at) / Fold change /veh MBOAT4 (11741988_at) / RFU 11764193_at / Fold change /veh 11764193_at / RFU TMEM53 (11763286_at) / Fold change /veh TMEM53 (11763286_at) / RFU MAGEB2 (11727129_at) / Fold change /veh MAGEB2 (11727129_at) / RFU TMEM200A (11744735_a_at) / Fold change /veh TMEM200A (11744735_a_at) / RFU CCDC152 (11751479_a_at) / Fold change /veh CCDC152 (11751479_a_at) / RFU FAM211A (11726209_a_at) / Fold change /veh FAM211A (11726209_a_at) / RFU RGS16 (11746705_a_at) / Fold change /veh RGS16 (11746705_a_at) / RFU VCAN (11755009_s_at) / Fold change /veh VCAN (11755009_s_at) / RFU RHOB (11743442_s_at) / Fold change /veh RHOB (11743442_s_at) / RFU RGS16 (11720943_a_at) / Fold change /veh RGS16 (11720943_a_at) / RFU RGS16 (11720944_at) / Fold change /veh RGS16 (11720944_at) / RFU, VPS4B / Fold change vs veh, VPS4B / RFU, CREB1 / Fold change vs veh, CREB1 / RFU, DNAJC13 / Fold change vs veh, DNAJC13 / RFU, GNAQ / Fold change vs veh, GNAQ / RFU, CDK5R1 / Fold change vs veh, CDK5R1 / RFU, ZRANB3 / Fold change vs veh, ZRANB3 / RFU, CUL4A / Fold change vs veh, CUL4A / RFU, CCNY / Fold change vs veh, CCNY / RFU, UFL1 / Fold change vs veh, UFL1 / RFU, COG3 / Fold change vs veh, COG3 / RFU, DIAPH2 / Fold change vs veh, DIAPH2 / RFU, SKA2 / Fold change vs veh, SKA2 / RFU, AFF3 / Fold change vs veh, AFF3 / RFU, LMF1 / Fold change vs veh, LMF1 / RFU, IPO11 / Fold change vs veh, IPO11 / RFU, DFFB / Fold change vs veh, DFFB / RFU, FOXP1 / Fold change vs veh, FOXP1 / RFU, CARD8 / Fold change vs veh, CARD8 / RFU, STRN3 / Fold change vs veh, STRN3 / RFU, ADK / Fold change vs veh, ADK / RFU, RASSF2 / Fold change vs veh, RASSF2 / RFU, WIPF1 / Fold change vs veh, WIPF1 / RFU, LARP1B / Fold change vs veh, LARP1B / RFU, RASA1 / Fold change vs veh, RASA1 / RFU, RB1 / Fold change vs veh, RB1 / RFU, PPFIA1 / Fold change vs veh, PPFIA1 / RFU, MAT2A / Fold change vs veh, MAT2A / RFU, CCT5 / Fold change vs veh, CCT5 / RFU, WDR92 / Fold change vs veh, WDR92 / RFU, CUX1 / Fold change vs veh, CUX1 / RFU, TTC7A / Fold change vs veh, TTC7A / RFU, TMEM135 / Fold change vs veh, TMEM135 / RFU, DEPTOR / Fold change vs veh, DEPTOR / RFU, CPM / Fold change vs veh, CPM / RFU, DNAJB6 / Fold change vs veh, DNAJB6 / RFU, CACNA2D3 / Fold change vs veh, CACNA2D3 / RFU, DTX4 / Fold change vs veh, DTX4 / RFU, TFCP2 / Fold change vs veh, TFCP2 / RFU, GMCL1 /// GMCL1P1 / Fold change vs veh, GMCL1 /// GMCL1P1 / RFU, AEBP2 / Fold change vs veh, AEBP2 / RFU, SNHG1 /// SNORD22 /// SNORD25 /// SNORD26 /// SNORD27 /// SNORD28 /// SNORD29 /// SNORD31 / Fold change vs veh, SNHG1 /// SNORD22 /// SNORD25 /// SNORD26 /// SNORD27 /// SNORD28 /// SNORD29 /// SNORD31 / Fold change (Aza/veh), C12orf56 (ProbeSet 11735607_a_at) / Fold change (ACY-1035/veh), C12orf56 (ProbeSet 11735607_a_at) / Fold change (Aza/veh), FGFR1OP (ProbeSet 11751329_s_at) / Fold change (ACY-1035/veh), FGFR1OP (ProbeSet 11751329_s_at) / Fold change (Aza/veh), VPS36 (ProbeSet 11739960_a_at) / Fold change (ACY-1035/veh), VPS36 (ProbeSet 11739960_a_at) / RFU SYPL1 (11715823_x_at) / Fold change /veh SYPL1 (11715823_x_at) / RFU IGFBP7 (11715501_s_at) / Fold change /veh IGFBP7 (11715501_s_at) / RFU REEP3 (11722064_at) / Fold change /veh REEP3 (11722064_at) / RFU IGLL1 (11728026_x_at) / Fold change /veh IGLL1 (11728026_x_at): dose or concentration left out as unconfirmed
Settings: ProbeSet 11745260_x_at; LIST B

Nc1ncn([C@@H]2O[C@H](CO)[C@@H](O)[C@H]2O)c(=O)n1 [azacitidine]
RFU, SLC12A2: 29.09 RFU
